Test results from US20070270349A1, “Glutathione Derivatives and Their Uses for the Treatment of Viral Diseases” (priority 2003, published 2007).
pEC50: −log10 of the molar value.

How the values were obtained:
[1] = test system: uninfected Madin Darby canine kidney cells (MDKC); assay: Toxicity on confluent monolayers of uninfected MDCK cells (morphology, Trypan blue vitality, cell count); format: cell-based; conditions: for toxic effect or change in cell morphology: uninfected MDCK monolayers, concentrations used in the experiments
Experimental: The toxicity was measured on the basis of microscopic examinations of cellular morphology, of measurement of cellular vitality after staining with Trypan blue and of the cell count. All compounds were diluted in RPMI, the final pH of the solution was approximately 7-7.3.

erythrocytes (RBCs) = assay: Entry into erythrocytes, oil-stop method; format: in vitro ADME; conditions: calculated in the first 30 minutes, 37° C., 10% hematocrit
Experimental: The entry of GSH and GSH-C4 into erythrocytes (RBCs) at 37° C. in microcentrifugal test-tubes was measured using the oil-stop method. […] A Manual of Biochemical Methods, 3rd edn. Grune & Stratton, New York).

Sendai virus = Sendai virus replication in MDCK cells, hemagglutinating activity in supernatant; format: cell-based; conditions: for pEC50 / inhibition at 5000 µM: Respirovirus muris; for pEC50: 48 h, MDCK cells, read-out: 50% of inhibition of viral reproduction (EC50); for inhibition at 5000 µM: MDCK, 5 mM
Experimental: To measure the behavior of GSH-C4 derivatives in infected cells, Madin Darby canine kidney cells (MDCK) were grown in RPMI 1640 to which 5% of heat-decomplemented bovine fetal serum (Flow Laboratories, Italy) was added.
(§1) The Senday virus (SV) belonging to the Paramyxovirus family is a virus with non-segmented single stranded RNA of negative polarity. This virus was reproduced by inoculation in the allantoic liquid of embryonated chicken eggs. The monolayers of MDCK cells were infected with SV [3 hemagglutinating units (HAU)×10^5 cells]. After incubation for 1 hour at 37° C. (adsorption period), the unadsorbed viruses were removed, the monolayers were washed and then incubated in a complete medium containing 2% of bovine fetal serum. The production of viruses by infected cells was determined in the cellular supernatants at different intervals of time from infection (p.i.), measuring the hemagglutinating activity towards type 0 Rh+ human erythrocytes (HAU), according to standard procedures. […] Monkey kidney cells (VERO) were grown in RPMI, to which 5% of serum was added. The human herpes simplex virus type 1 (HSV-1), clinically isolated (TV1), was grown and titered in the Vero cells as described in Palamara, A. T., Perno, C. F., Ciriolo, M. R., Dini, L., Balestra, E., D'Agostini, C. et al. (1995). […] Antiviral Research 27, 237-253.
MDCK cells were infected for 1 hour with 3 hemagglutinating units (HAU)×10^5 cells. The cells were washed and then cultivated in the presence of different concentrations of GSH-C4 (range 0-7.5 mM) for 2 days. Production of the virus was assayed at 24 hours (panel A) and 48 hours (panel B) measuring the hemagglutinating activity on type 0 Rh+ human erythrocytes.

HSV-1 = HSV-1 replication in Vero cells, plaque assay; format: cell-based, human herpes simplex virus type 1
Experimental: as §1
(§2) To obtain the viral infection, monolayers of Vero cells were infected with HSV-1 at a MOI (multiplicity of infection) of 0.03 PFU/cell. After incubation for 1 hour at 37° C. (adsorption period) the unadsorbed viruses were removed, the monolayers were washed and then incubated with culture medium containing 2% bovine fetal serum. GSH-C4 was added in identical doses to the ones indicated above immediately after the adsorption period and was maintained in the culture medium until completion of the experiments. Supernatants from infected cells were collected at different times after contact with the virus and tested for the ability to form plaques in Vero cells, using a standard titration method. Similar experiments were also conducted on HSV-1 TK-D305.
Vero cells were infected for 1 hour with HSV-1 at a MOI of 0.03 PFU/cell. After repeated washings, GSH-C4 was added at different concentrations (range 0-10 mM) to the cell cultures. Replication of the viruses was tested in the Vero cells 48 h after infection using the plaque technique.

[2] = molecular target: T1, glutathione peroxidase (E.C.1.11.1.9.) (Homo sapiens, UniProt P07203); assay: Glutathione peroxidase activity in hemolyzed human blood with GSH or GSH-C4 as substrate; format: biochemical; conditions: 2 mM substrate
T1 construct: measured in hemolyzed human blood; from tissue; host or cells: hemolyzed human blood
T1 sequence (P07203 1-203): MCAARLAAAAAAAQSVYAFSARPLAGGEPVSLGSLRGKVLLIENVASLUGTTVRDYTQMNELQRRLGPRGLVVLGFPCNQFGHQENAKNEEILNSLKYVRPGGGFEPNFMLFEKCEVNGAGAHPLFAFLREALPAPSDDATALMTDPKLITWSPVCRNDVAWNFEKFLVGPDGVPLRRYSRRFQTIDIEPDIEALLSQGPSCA
Experimental: (§3) Enzymatic determinations of the activity of glutathione peroxidase (E.C.1.11.1.9.) and glutathione S-transferase (E.C.2.5.1.18.) in hemolyzed human blood in the presence of GSH and of its derivative GSH-C4 were carried out according to the methods of Beutler (Beutler, E., 1984, Red Cell Metabolism. A Manual of Biochemical Methods, 3rd edn. Grune & Stratton, New York). GSH and GSH-C4 were then oxidized by incubation at ambient temperature in the presence of 35% (v/v) H2O2 to respectively obtain GSSG and C4-GSSG-C4.
(§4) The enzymatic activities of glutathione peroxydase and glutathione S-transferase were measured in hemolyzed human blood in the presence of GSH-C4 or GSH 2 mM as substrates. […] Moreover, GSH and GSH-C4 were chemically oxidized in the corresponding disulphide forms (GSSG and C4-GSSG-C4).

[3] = test system: glutathione S-transferase (E.C.2.5.1.18.); assay: Glutathione S-transferase activity in hemolyzed human blood with GSH or GSH-C4 as substrate; format: biochemical; conditions: 2 mM substrate
Experimental: as §3, §4

HSV-1 TK− = assay: HSV-1 TK- (Δ305) replication in Vero cells, plaque forming units; format: cell-based, human herpes simplex virus type 1
Experimental: as §2
Vero cells were infected for 1 h at 37° C. with the strain Δ305 and then kept in culture in the presence of different concentrations of GSH-C4. The production of viruses was measured 24, 48 and 72 h after infection by assay of the plaque forming units.

uninfected Vero cells = assay: Toxic effects in uninfected Vero cells; format: cell-based, Monkey

With `CCCCCCCC(=O)NC(CCC(=O)NC(CS)C(=O)NCC(=O)O)C(=O)O` (stereo not drawn) [GSH-C8] the “toxic effect or change in cell morphology” value [1] was “marked toxic effects”.
`N[C@@H](CCC(=O)N[C@@H](CS)C(=O)NCC(=O)O)C(=O)O` [GSH, γ-glutamylcysteinylglycine, reference compound] was tested, and the “entry speed into erythrocytes” value (erythrocytes (RBCs)) was 2.33 nmol/min/ml RBCs, the pEC50 (Sendai virus) was 2.12 and the “complete inhibition of the virus” value (HSV-1; 10 mM) was “does not induce complete inhibition of the virus”. The “reduction in virus replication” value (HSV-1; 10 mM) was “around 2.5 log”.
For `CCCC(=O)N[C@@H](CCC(=O)N[C@@H](CS)C(=O)NCC(=O)O)C(=O)O` [GSH-C4, n-butanoyl γ-glutamylcysteinylglycine], the “toxicity for the cells, microscopic examination of the monolayers” value ([1]; 7.5 mM, MDCK monolayers of the Sendai experiment) was “without being toxic for the cells”, the “toxic effect or change in cell morphology” value [1] was “do not induce any toxic effect or change in cell morphology” and the “glutathione peroxydase activity compared to that in the presence of GSH” value [2] was 1.8%. The “glutathione S-transferase activity compared to that in the presence of GSH” value [3] was 3.5%, the “entry speed into erythrocytes” value (erythrocytes (RBCs)) was 4.33 nmol/min/ml RBCs and the “virus in the supernatant of treated cells” value (Sendai virus; 7.5 mM) was “no viruses were found”. It also gave an inhibition at 5000 µM (Sendai virus; 24 h p.i.) of 88%, an inhibition at 5000 µM (Sendai virus; 48 h p.i.) of 93% and a pEC50 (Sendai virus) of 2.44. For the same compound, the “virus particles in the cellular supernatant” value (HSV-1; 10 mM, 48 h after infection) was “no virus particles were detected”, the “inhibition of virus replication 72 h after infection” value (HSV-1; 72 h after infection) was “same inhibition” and the “protection from cytopathic effects induced by the virus” value (HSV-1; HSV-1 infected Vero cells) was “protects the Vero cells from the cytopathic effects induced by the virus”. For the same compound, the inhibition at 7500 µM (HSV-1; Human alphaherpesvirus 1, Vero, 48 h, read-out: inhibition of viral replication compared to the control) was 60%, the “activity against the strain TK− compared with the wild type strain” value (HSV-1 TK−) was “less active” and the “HSV-1 TK− titer” value (HSV-1 TK−; 5 mM, 24 h) was 2.59 × 10^5 pfu/ml. For the same compound, the “HSV-1 TK− titer” value (HSV-1 TK−; 5 mM, 48 h) was 2.42 × 10^6 pfu/ml, the “HSV-1 TK− titer” value (HSV-1 TK−; 5 mM, 72 h) was 2.13 × 10^6 pfu/ml and the “HSV-1 TK− titer” value (HSV-1 TK−; 7.5 mM, 24 h) was 1.59 × 10^5 pfu/ml. For the same compound, the “HSV-1 TK− titer” value (HSV-1 TK−; 7.5 mM, 48 h) was 2.56 × 10^5 pfu/ml, the “HSV-1 TK− titer” value (HSV-1 TK−; 7.5 mM, 72 h) was 4.33 × 10^5 pfu/ml and the “inhibition of virus titer” value (HSV-1 TK−; 7.5 mM, 72 h after infection) was “approximately 1 log”. The “HSV-1 TK− titer” value (HSV-1 TK−; 10 mM, 24 h) was 1.53 × 10^5 pfu/ml, the “HSV-1 TK− titer” value (HSV-1 TK−; 10 mM, 48 h) was 2.6 × 10^5 pfu/ml and the “HSV-1 TK− titer” value (HSV-1 TK−; 10 mM, 72 h) was 3.44 × 10^5 pfu/ml. For the same compound, the “toxic effects in uninfected Vero cells” value (uninfected Vero cells) was “does not induce any toxic effects”.
